How the values were obtained:
[1] = test system: S. epidermidis ATCC 12228; assay: NCCLS broth microdilution MIC, S. epidermidis; assay type: cell-based, Staphylococcus epidermidis; settings: organism G = S. epidermidis ATCC 12228
Excerpt: (§1) Compounds according to this invention were screened for their in vitro activities against selected species of bacteria and fungi. […]

S. aureus ATCC 27660 = assay: NCCLS broth microdilution MIC, S. aureus (MRSA); assay type: cell-based, Staphylococcus aureus; settings: organism F = S. aureus ATCC 27660 (MRSA)
Excerpt: as §1

E. faecalis ATCC 29212 = assay: NCCLS broth microdilution MIC, E. faecalis; assay type: cell-based; settings: organism C = E. faecalis ATCC 29212
Excerpt: as §1

E. faecium ATCC 51559 = assay: NCCLS broth microdilution MIC, E. faecium (VRE); assay type: cell-based, Enterococcus faecium; settings: organism D = E. faecium ATCC 51559 (VRE)
Excerpt: as §1

S. pneumoniae ATCC 49619 = assay: NCCLS broth microdilution MIC, S. pneumoniae ATCC 49619; assay type: cell-based, Streptococcus pneumoniae; settings: organism H = S. pneumoniae ATCC 49619
Excerpt: as §1

C. albicans ATCC 38247 = assay: Antifungal MIC, C. albicans; assay type: cell-based, Candida albicans; settings: organism B = C. albicans ATCC 38247
Excerpt: as §1

S. aureus ATCC 13709 = assay: NCCLS broth microdilution MIC, S. aureus (MSSA); assay type: cell-based, Staphylococcus aureus; settings: organism E = S. aureus ATCC 13709 (MSSA)
Excerpt: as §1

B. cereus ATCC 11778 = assay: NCCLS broth microdilution MIC, B. cereus; assay type: cell-based, Bacillus cereus; settings: organism A = B. cereus ATCC 11778
Excerpt: as §1

S. pneumoniae ATCC 51422 = assay: NCCLS broth microdilution MIC, S. pneumoniae (PRSP); assay type: cell-based, Streptococcus pneumoniae; settings: organism I = S. pneumoniae ATCC 51422 (PRSP)
Excerpt: as §1

[2] = Staphylococcus aureus, read-out: Minimum Inhibitory Concentration (MIC)

Structure (SMILES) | Minimum Inhibitory Concentration (MIC) [1] | Minimum Inhibitory Concentration (MIC) (S. aureus ATCC 27660) | Minimum Inhibitory Concentration (MIC) (E. faecalis ATCC 29212) | Minimum Inhibitory Concentration (MIC) (E. faecium ATCC 51559) | Minimum Inhibitory Concentration (MIC) (S. pneumoniae ATCC 49619) | Minimum Inhibitory Concentration (MIC) (C. albicans ATCC 38247) | Minimum Inhibitory Concentration (MIC) (S. aureus ATCC 13709) | Minimum Inhibitory Concentration (MIC) (B. cereus ATCC 11778) | Minimum Inhibitory Concentration (MIC) (S. pneumoniae ATCC 51422) | MIC ([1]; Staphylococcus epidermidis, ATCC12228, read-out: Minimum Inhibitory Concentration (MIC)) [µg/mL] | MIC (S. aureus ATCC 27660; [2]) [µg/mL] | MIC (E. faecalis ATCC 29212; Enterococcus faecalis, ATCC29212, read-out: Minimum Inhibitory Concentration (MIC)) [µg/mL] | MIC (E. faecium ATCC 51559; Enterococcus faecium, read-out: Minimum Inhibitory Concentration (MIC)) [µg/mL] | MIC (S. pneumoniae ATCC 49619; Streptococcus pneumoniae, ATCC49619, read-out: Minimum Inhibitory Concentration (MIC)) [µg/mL] | MIC (C. albicans ATCC 38247; Candida albicans, ATCC38247, read-out: Minimum Inhibitory Concentration (MIC)) [µg/mL] | MIC (S. aureus ATCC 13709; [2]) [µg/mL] | MIC (B. cereus ATCC 11778; Bacillus cereus, ATCC11778, read-out: Minimum Inhibitory Concentration (MIC)) [µg/mL] | MIC (S. pneumoniae ATCC 51422; Streptococcus pneumoniae, read-out: Minimum Inhibitory Concentration (MIC)) [µg/mL]
COCCOCCOCCn1cc(NC(=O)c2cc(NC(=O)c3cc4ccccc4cn3)cn2C)cc1C(=O)Nc1cc(C(=O)NCCN2CCOCC2)n(C)c1 [Ib-83] | +++ (+++ = MIC ≦ 4) | +++ (+++ = MIC ≦ 4) | +++ (+++ = MIC ≦ 4) | +++ (+++ = MIC ≦ 4) | +++ (+++ = MIC ≦ 4) | >32 µg/mL | +++ (+++ = MIC ≦ 4) | +++ (+++ = MIC ≦ 4) | +++ (+++ = MIC ≦ 4) | – | – | – | – | – | – | – | – | –
Cn1cc(NC(=O)c2cc(NC(=O)c3cc(NC(=O)c4cc5ccccc5cn4)cn3C)c[nH]2)cc1C(=O)NCCc1ccccn1 [Ib-93] | +++ (+++ = MIC ≦ 4) | +++ (+++ = MIC ≦ 4) | +++ (+++ = MIC ≦ 4) | +++ (+++ = MIC ≦ 4) | +++ (+++ = MIC ≦ 4) | >32 µg/mL | +++ (+++ = MIC ≦ 4) | +++ (+++ = MIC ≦ 4) | +++ (+++ = MIC ≦ 4) | – | – | – | – | – | – | – | – | –
Cn1cc(NC(=O)c2ccc(NC(=O)c3cc(NC(=O)c4cc5ccccc5cn4)cn3C)cc2)cc1C(=O)NCCN1CCOCC1 [Ic-1] | – | – | – | – | – | – | – | – | – | < 4 | < 4 | < 4 | < 4 | < 4 | > 32 | < 4 | < 4 | < 4
Cn1cc(NC(=O)c2ccc(NC(=O)c3cc(NC(=O)c4cc5ccccc5cn4)cn3C)cc2)cc1C(=O)NCCN1CCC(F)CC1 [Ic-3] | +++ (+++ = MIC ≦ 4) | +++ (+++ = MIC ≦ 4) | +++ (+++ = MIC ≦ 4) | +++ (+++ = MIC ≦ 4) | +++ (+++ = MIC ≦ 4) | >32 µg/mL | +++ (+++ = MIC ≦ 4) | +++ (+++ = MIC ≦ 4) | +++ (+++ = MIC ≦ 4) | – | – | – | – | – | – | – | – | –
Cn1cc(NC(=O)c2ccc(NC(=O)c3cc(NC(=O)c4cc5ccccc5cn4)cn3C)cc2)cc1C(=O)NCCN1CCSCC1 [Ic-7] | +++ (+++ = MIC ≦ 4) | +++ (+++ = MIC ≦ 4) | +++ (+++ = MIC ≦ 4) | +++ (+++ = MIC ≦ 4) | +++ (+++ = MIC ≦ 4) | >32 µg/mL | +++ (+++ = MIC ≦ 4) | +++ (+++ = MIC ≦ 4) | +++ (+++ = MIC ≦ 4) | – | – | – | – | – | – | – | – | –
Cn1cc(NC(=O)c2ccc(NC(=O)c3cc(NC(=O)c4cc5ccccc5cn4)cn3C)cc2)cc1C(=O)NCCc1ccccn1 [Ic-12] | +++ (+++ = MIC ≦ 4) | +++ (+++ = MIC ≦ 4) | +++ (+++ = MIC ≦ 4) | +++ (+++ = MIC ≦ 4) | +++ (+++ = MIC ≦ 4) | >32 µg/mL | +++ (+++ = MIC ≦ 4) | >32 µg/mL | +++ (+++ = MIC ≦ 4) | – | – | – | – | – | – | – | – | –

The next lines start with the values.

Minimum Inhibitory Concentration (MIC) [1] | Minimum Inhibitory Concentration (MIC) (S. aureus ATCC 27660) | Minimum Inhibitory Concentration (MIC) (E. faecalis ATCC 29212) | Minimum Inhibitory Concentration (MIC) (E. faecium ATCC 51559) | Minimum Inhibitory Concentration (MIC) (S. pneumoniae ATCC 49619) | Minimum Inhibitory Concentration (MIC) (C. albicans ATCC 38247) | Minimum Inhibitory Concentration (MIC) (S. aureus ATCC 13709) | Minimum Inhibitory Concentration (MIC) (B. cereus ATCC 11778) | Minimum Inhibitory Concentration (MIC) (S. pneumoniae ATCC 51422) | MIC ([1]; Staphylococcus epidermidis, ATCC12228, read-out: Minimum Inhibitory Concentration (MIC)) [µg/mL] | MIC (S. aureus ATCC 27660; [2]) [µg/mL] | MIC (E. faecalis ATCC 29212; Enterococcus faecalis, ATCC29212, read-out: Minimum Inhibitory Concentration (MIC)) [µg/mL] | MIC (E. faecium ATCC 51559; Enterococcus faecium, read-out: Minimum Inhibitory Concentration (MIC)) [µg/mL] | MIC (S. pneumoniae ATCC 49619; Streptococcus pneumoniae, ATCC49619, read-out: Minimum Inhibitory Concentration (MIC)) [µg/mL] | MIC (C. albicans ATCC 38247; Candida albicans, ATCC38247, read-out: Minimum Inhibitory Concentration (MIC)) [µg/mL] | MIC (S. aureus ATCC 13709; [2]) [µg/mL] | MIC (B. cereus ATCC 11778; Bacillus cereus, ATCC11778, read-out: Minimum Inhibitory Concentration (MIC)) [µg/mL] | MIC (S. pneumoniae ATCC 51422; Streptococcus pneumoniae, read-out: Minimum Inhibitory Concentration (MIC)) [µg/mL] | Structure (SMILES)
++ (++ = 4 < MIC < 12) | +++ (+++ = MIC ≦ 4) | +++ (+++ = MIC ≦ 4) | +++ (+++ = MIC ≦ 4) | +++ (+++ = MIC ≦ 4) | >32 µg/mL | +++ (+++ = MIC ≦ 4) | +++ (+++ = MIC ≦ 4) | +++ (+++ = MIC ≦ 4) | – | – | – | – | – | – | – | – | – | Cn1cc(NC(=O)c2cc3ccccc3cn2)cc1C(=O)Nc1cc(C(=O)Nc2c[nH]c(C(=O)NCCN3CCSCC3)c2)n(C)c1 [Ib-54]
+++ (+++ = MIC ≦ 4) | +++ (+++ = MIC ≦ 4) | +++ (+++ = MIC ≦ 4) | +++ (+++ = MIC ≦ 4) | +++ (+++ = MIC ≦ 4) | >32 µg/mL | +++ (+++ = MIC ≦ 4) | +++ (+++ = MIC ≦ 4) | +++ (+++ = MIC ≦ 4) | – | – | – | – | – | – | – | – | – | Cn1cc(NC(=O)c2cc(NC(=O)c3cc(NC(=O)c4cc5ccccc5cn4)c[nH]3)cn2C)cc1C(=O)NCCN1CCC(F)(F)CC1 [Ib-78]
+++ (+++ = MIC ≦ 4) | +++ (+++ = MIC ≦ 4) | +++ (+++ = MIC ≦ 4) | +++ (+++ = MIC ≦ 4) | +++ (+++ = MIC ≦ 4) | + (+ = 12 ≦ MIC ≦ 32) | +++ (+++ = MIC ≦ 4) | +++ (+++ = MIC ≦ 4) | +++ (+++ = MIC ≦ 4) | – | – | – | – | – | – | – | – | – | Cn1cc(NC(=O)c2cc(NC(=O)c3cc(NC(=O)c4cc5ccccc5cn4)cn3C)c[nH]2)cc1C(=O)NCCN1CCCC1 [Ib-84]
+++ (+++ = MIC ≦ 4) | +++ (+++ = MIC ≦ 4) | +++ (+++ = MIC ≦ 4) | +++ (+++ = MIC ≦ 4) | +++ (+++ = MIC ≦ 4) | + (+ = 12 ≦ MIC ≦ 32) | +++ (+++ = MIC ≦ 4) | +++ (+++ = MIC ≦ 4) | +++ (+++ = MIC ≦ 4) | – | – | – | – | – | – | – | – | – | Cn1cc(NC(=O)c2cc(NC(=O)c3cc(NC(=O)c4cc5ccccc5cn4)cn3C)c[nH]2)cc1C(=O)NCCN1CCC(F)CC1 [Ib-85]
+++ (+++ = MIC ≦ 4) | +++ (+++ = MIC ≦ 4) | +++ (+++ = MIC ≦ 4) | +++ (+++ = MIC ≦ 4) | +++ (+++ = MIC ≦ 4) | ++ (++ = 4 < MIC < 12) | +++ (+++ = MIC ≦ 4) | +++ (+++ = MIC ≦ 4) | +++ (+++ = MIC ≦ 4) | – | – | – | – | – | – | – | – | – | Cn1cc(NC(=O)c2cc(NC(=O)c3cc(NC(=O)c4cc5ccccc5cn4)cn3C)c[nH]2)cc1C(=O)NCCN1CCCCC1 [Ib-86]
+++ (+++ = MIC ≦ 4) | +++ (+++ = MIC ≦ 4) | +++ (+++ = MIC ≦ 4) | +++ (+++ = MIC ≦ 4) | +++ (+++ = MIC ≦ 4) | >32 µg/mL | +++ (+++ = MIC ≦ 4) | +++ (+++ = MIC ≦ 4) | +++ (+++ = MIC ≦ 4) | – | – | – | – | – | – | – | – | – | Cn1cc(NC(=O)c2cc(NC(=O)c3cc(NC(=O)c4cc5ccccc5cn4)cn3C)c[nH]2)cc1C(=O)NCCN1CCSCC1 [Ib-87]
+++ (+++ = MIC ≦ 4) | +++ (+++ = MIC ≦ 4) | +++ (+++ = MIC ≦ 4) | +++ (+++ = MIC ≦ 4) | +++ (+++ = MIC ≦ 4) | >32 µg/mL | +++ (+++ = MIC ≦ 4) | +++ (+++ = MIC ≦ 4) | +++ (+++ = MIC ≦ 4) | – | – | – | – | – | – | – | – | – | Cn1cc(NC(=O)c2cc(NC(=O)c3cc(NC(=O)c4cc5ccccc5cn4)cn3C)c[nH]2)cc1C(=O)NCCN1CCC(F)(F)CC1 [Ib-88]
+++ (+++ = MIC ≦ 4) | +++ (+++ = MIC ≦ 4) | +++ (+++ = MIC ≦ 4) | +++ (+++ = MIC ≦ 4) | +++ (+++ = MIC ≦ 4) | >32 µg/mL | +++ (+++ = MIC ≦ 4) | +++ (+++ = MIC ≦ 4) | +++ (+++ = MIC ≦ 4) | – | – | – | – | – | – | – | – | – | Cn1cc(NC(=O)c2ccc(NC(=O)c3cc(NC(=O)c4cc5ccccc5cn4)cn3C)cc2)cc1C(=O)NCCN1CCC(F)(F)CC1 [Ic-4]

Source: patent publication US6777425B2, “Isoquinoline compounds having antiinfective activity” (Genesoft Pharmaceuticals, Inc., priority 2001, dated 2004)
